Patent US20170281651A1, “CONCOMITANT ADMINISTRATION OF GLUCOCORTICOID RECEPTOR MODULATORS AND CYP3A OR STEROIDOGENESIS INHIBITORS” (Corcept Therapeutics, Inc., priority 2017, published 2017)
Several values for one entry are separate records, joined by “and”; a condition that tells them apart may be missing. Identical values can stand only once. Like-named read-outs stand apart in the source and are kept apart here.

Tests used:
Format in all cases: in vivo, human
[1] = Example 1: effect of oral ketoconazole (400 mg OD or 200 mg BID) on plasma pharmacokinetics of a 300 mg single dose of mifepristone, fasted; details: for Cmax / AUC(0-t) / half-life / Tmax: male, human, plasma, oral; for AUC(0-t): read-out: AUCt (AUC0-24 hours, mean); for half-life: read-out: T1/2 (mean) (converted); for Tmax: read-out: Tmax (median)
Text: This study was an open-label study in healthy male subjects.
Healthy male volunteers between the ages of 18 to 45 years of age with a body mass index (BMI) ranging between 19 and 32 kg/m2 and a weight of at least 60 kg (132 lbs) were enrolled. Subjects had no clinically significant abnormal findings on the physical examination, ECG, blood pressure, heart rate, medical history, or clinical laboratory results during screening. The QTc interval at screening was less than 450 msec.
(§1) In cohort 1, six subjects received ketoconazole 400 mg OD for 14 days.
Subjects remained in the clinic on Days 2 and 3 to receive 400 mg OD oral ketoconazole fasted, and for safety evaluation and collection of blood pharmacokinetic (PK) samples. Subjects were discharged from the clinic on Day 4 following administration of 400 mg OD oral ketoconazole fasted, and returned to the clinic the mornings of Days 5 through 13 to receive 400 mg OD oral ketoconazole fasted.
(§2) In cohort 2, six subjects received ketoconazole 200 mg BID for 14 days. […] All 12 subjects completed the study. Cohort 2 subjects participated in a Screening visit to assess eligibility and a check-in Day (Day −1) during which eligibility was re-confirmed. […] The evening of Day 1, subjects received 200 mg oral ketoconazole. Subjects remained in the clinic on Days 2, 3 and 4 to receive 200 mg BID oral ketoconazole, and for safety evaluation and collection of blood pharmacokinetic (PK) samples. Subjects were discharged from the clinic on Day 4 following evening administration of 200 mg oral ketoconazole, and returned to the clinic the morning and evening of Days 5 through 13 to receive 200 mg BID oral ketoconazole. Morning doses of ketoconazole on Days 0-13 were administered in the fasted state.
(§3) Subjects in both cohorts returned to the study center on Day 15 for safety monitoring, and completion of the Termination Visit procedures, followed by discharge from the study. Safety was assessed by spontaneously reported adverse events, physical examinations, and routine clinical laboratory tests. To the extent possible, any adverse events deemed study drug-related and that were ongoing at the time of discharge from the study were followed-up to resolution or until a determination is made that the unresolved event was stable.
Descriptive statistics (count, mean, median, standard deviation, minimum, maximum, and % coefficient of variation) were provided. […] Comparisons with previous study data were made.

[2] = Example 2: safety (adverse events, physical examinations, laboratory tests)
Method: This was an open-label study in healthy male subjects. […] The 400 mg single dose of ketoconazole was given to all subjects on day 8.
Safety was assessed by spontaneously reported adverse events, physical examinations, and routine clinical laboratory tests. Adverse event data were tabulated. Physical findings and laboratory test results were listed by subject.

[3] = Example 1: safety (adverse events, laboratory tests, ECG)
Method: as §1, §2, §3

[4] = Examples 4-7: liver function of a patient with excess cortisol switched to reduced mifepristone dose plus ketoconazole
[5] = Example 3: safety (adverse events, laboratory tests, vital signs, ECG)
Method: A single dose of ketoconazole was administered on Day −1.

[6] = Example 3: Phase 1 study of ketoconazole 200 mg twice daily with mifepristone 600 mg once daily with food, plasma PK incl. cross-study comparison
[7] = C2/C1 (Keto 200 mg BID vs 400 mg OD)
[8] = MIFE 300 mg single dose fasted + Keto 200 mg BID (Cohort 2)
[9] = MIFE 300 mg single dose fasted + Keto 400 mg OD (Cohort 1)
[10] = mifepristone 300 mg single dose with ketoconazole for 14 days
[11] = Test: Day 17 600 mg mifepristone OD + 200 mg Ketoconazole BID, Reference: Day 12 600 mg mifepristone OD
[12] = Test: Present Study Day 17 600 mg mifepristone OD + 200 mg Ketoconazole BID, Reference: Historic Study Day 7 1200 mg mifepristone OD alone, after 34% fat meal

## CC#C[C@]1(O)CC[C@H]2[C@@H]3CCC4=CC(=O)CCC4=C3[C@@H](c3ccc(N(C)C)cc3)C[C@@]21C [mifepristone, 11β-(4-dimethylaminophenyl)-17β-hydroxy-17α-(1-propynyl)-estra-4,9-dien-3-one]
[1]; [7]
  Mean Ratio AUCtotal (AUCinf, geometric mean ratio): 1.05
  Mean Ratio Cmax (geometric mean ratio): 1.15
[1]; Keto 200 mg BID vs 400 mg OD
  Terminal half-life Cohort 2 versus Cohort 1: approximately the same
  Tmax Cohort 2 versus Cohort 1: shorter
[1]; [8]
  AUCtot (AUCtotal, mean): 130925 ng·h/mL
  Cmax: 4140 ng/mL
  AUC(0-t): 40600 ng·h/mL
  half-life: 37.4 h
  Tmax: 1 h
[1]; [9]
  AUCtot (AUCtotal, mean): 116939 ng·h/mL
  Cmax: 3400 ng/mL
  AUC(0-t): 38100 ng·h/mL
  half-life: 37.1 h
  Tmax: 2 h
[2]; four subjects in Cohort 2 (600 mg)
  TEAEs considered possibly or probably related to administration: dizziness, nausea, vomiting, dry mouth, and rash
[2]; mifepristone 300 or 600 mg OD 8 days + 400 mg ketoconazole Day 8
  SAE: No subject experienced an SAE
[2]; twelve subjects, mifepristone 300 or 600 mg OD 8 days + 400 mg ketoconazole Day 8
  subjects with at least 1 TEAE: 50%
[3]; 300 mg single-dose fasted with ketoconazole 400 mg OD or 200 mg BID for 14 days, healthy volunteers
  safety and tolerability: safe and well tolerated
[3]; 12 subjects, mifepristone 300 mg single dose with ketoconazole for 14 days
  subjects with at least one treatment emergent adverse event (TEAE): 25%
[3]; mifepristone 300 mg single dose with ketoconazole
  changes in ECG parameters: No clinically significant changes
[3]; [10]
  SAE or AE resulting in discontinuation: No subject experienced a serious adverse effect (SAE), or an adverse event (AE) that resulted in discontinuation
  TEAEs considered by the investigator to be related to the drug: No TEAE
[4]; daily dose reduced from 600 mg to 300 mg with concomitant ketoconazole
  liver function of the patient: not significantly compromised
[4]; daily dose reduced from 900 mg to 600 mg with concomitant ketoconazole
  liver function of the patient: not significantly compromised
[4]; daily dose reduced from 1200 mg to 900 mg with concomitant ketoconazole
  liver function of the patient: not significantly compromised
[4]; daily dose reduced from 1500 mg to 1200 mg with concomitant ketoconazole
  liver function of the patient: not significantly compromised
[5]; during the mifepristone/ketoconazole treatment period
  subjects reporting at least one TEAE: 57.1%
[5]; during treatment with mifepristone alone (600 mg once daily)
  subjects reporting at least one TEAE: 55.6%
[5]; liver enzymes (one subject), creatinine (two subjects), from Day 14
  subjects with elevated laboratory test results reported as drug-related TEAEs: Three subjects
[5]; multiple-dose mifepristone with or without multiple-dose ketoconazole
  effects on hematology or urinalysis parameters, vital signs, or ECGs: No clinically significant effects
[5]; whole study
  deaths or SAEs: No deaths or SAEs
  severe TEAEs: No severe TEAEs
[6]; 600 mg mifepristone once daily with 200 mg ketoconazole twice daily
  exposure as percent of that following the highest labeled dose (1200 mg daily): approximately 85%
[6]; Day 17 vs Day 12
  effect of ketoconazole on exposure (90% CI vs standard 80:125 interval): increased
[6]; Day 17 vs Day 12, FIG. 2
  difference of time 0 (pre-dose) plasma concentration: ~500 ng/mL
[6]; Day 17 with 200 mg ketoconazole twice daily, Day 12 mifepristone alone
  concentrations on Day 17 compared with Day 12: higher
[6]; [11]
  AUC0-24 Ratio % Test/Reference (geometric mean ratio): 138.01%
  Cmax Ratio % Test/Reference (geometric mean ratio): 127.59%
[6]; [12]
  AUC0-24 Ratio % Test/Ref (cross-study, geometric mean ratio): 87.27% and 87%
  Cmax Ratio % Test/Ref (cross-study, geometric mean ratio): 84.64%
[6]; Test: Present Study Day 17 600 mg mifepristone OD + 200 mg Ketoconazole BID, Reference: Historic Study Day 7 1200 mg mifepristone OD alone, after 34% fat meal, listed as Mifepristone
  AUC0-24 Ratio % Test/Ref (cross-study, geometric mean ratio): 87.27%
[6]; mifepristone 600 mg co-administered with ketoconazole
  exposure less than that of 1200 mg mifepristone in the absence of ketoconazole: 13-15%
